Measured values reported in patent US10683483B2, “Microfabricated platform for mimicking the liver zonation and evaluating method of zonal toxicity using thereof” (Korea Research Institute of Chemical Technology, priority 2019, dated 2020).

What was measured:
HepaRG cells [1] = experiment: Hepatotoxicity evaluation by dead cell staining (EthD-1) in the microfabricated platform for mimicking the liver zonation; format: cell-based; conditions: 10 mM acetaminophen, 48 hours
Experimental: First, an impermeable fluorescent substance was formed in the inside of HepaRG cells by using cell tracker deep red fluorescent solution in order to trace the location of HepaRG cells. A microfabricated platform for mimicking the liver zonation was prepared by the same conditions and same manners as described in Example 1 by using the prepared HepaRG cells. […] As a control, a culture medium without acetaminophen was used. Upon completion of the culture, the medium was removed and the dead cells were stained with EthD-1 (ethidium homodimer-1).

HepaRG cells [2] = experiment: Hepatotoxicity evaluation by cell viability (cell counting kit-8) of pieces of the microfabricated platform for mimicking the liver zonation; format: cell-based; conditions: 48 hours; acetaminophen 12.5-200 mM, tamoxifen 31.2-500 μM; pieces along CHIR gradient
Experimental: The 96-well plate was cultured at 37° C. for 48 hours. Upon completion of the reaction, cells were washed with PBS and the absorbance of the cells was measured using cell counting kit-8 (Dojindo Molecular Technologies) according to the manufacturer's protocol.

liver tissue = experiment: Hepatotoxicity in liver tissue of a rat model (H&E staining); format: in vivo, Sprague Dawley rats; conditions: oral, once a day for 3 days; acetaminophen 1,000 mg/kg, tamoxifen 60 mg/kg
Description: After the administration, the animals were sacrificed, from which the liver tissues were obtained. The obtained liver tissues were stained with H&E, followed by observation under a microscope.

CC(=O)Nc1ccc(O)cc1 [acetaminophen]
EthD-1 staining of dead cells (fluorescence intensity) by zone (HepaRG cells [1]): high fluorescence intensity in those hepatocytes exposed to a relatively high concentration of CHIR | zone-specific sensitivity of cell viability to drug induced toxicity (HepaRG cells [2]): more sensitive to the acetaminophen induced toxicity | liver histopathology by zone (H&E) (liver tissue): increased mitosis (yellow triangle), necrosis (blue triangle) and inflammatory cell infiltration (green triangle) in the central vein of the liver (zone 3)
